# Measured values published in PubChem BioAssay (NCI).
#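 Cells were grown in 96-well plates and exposed to each compound for 48 hours at five concentrations; endpoints were interpolated linearly between bracketing concentrations, or set to the highest concentration if not reached. Here, GI50 denotes the concentration required for 50% inhibition of growth. TGI: concentration producing complete growth inhibition.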
# Experiments:
# Experiment in all cases: NCI tumour cell line growth inhibition, 48 h
# LXFL 529 NSCLC = system: LXFL 529 NSCLC
# XF 498 CNS = system: XF 498 CNS
# SNB-78 CNS = system: SNB-78 CNS
# HOP-18 NSCLC = system: HOP-18 NSCLC
# DMS 273 small cell lung = system: DMS 273 small cell lung
# M19-MEL melanoma = system: M19-MEL melanoma
# DMS 114 small cell lung = system: DMS 114 small cell lung
# RXF-631 renal = system: RXF-631 renal
# DLD-1 colon = system: DLD-1 colon
Compound,TGI (LXFL 529 NSCLC) [µM],TGI (XF 498 CNS) [µM],TGI (SNB-78 CNS) [µM],TGI (HOP-18 NSCLC) [µM],TGI (DMS 273 small cell lung) [µM],TGI (M19-MEL melanoma) [µM],TGI (DMS 114 small cell lung) [µM],TGI (RXF-631 renal) [µM],TGI (DLD-1 colon) [µM],GI50 (LXFL 529 NSCLC) [µM],GI50 (SNB-78 CNS) [µM],GI50 (DLD-1 colon) [µM]
Cc1ccc(CCC(=O)C(=O)O)s1,> 100,> 100,> 100,> 100,> 100,> 100,> 100,> 100,–,–,–,–
O=c1oc2ccccc2c(O)c1C(C/C(CCN1CCCC1)=N\Nc1ccccc1)c1ccccc1 (centres undefined),> 100,> 100,> 100,> 100,–,> 100,–,–,> 100,–,–,–
CC1(C)N=C(c2ccccn2)C(c2ccccn2)=NC1(C)C,> 100,> 100,> 100,–,> 100,> 100,> 100,> 100,> 100,–,–,–
CN1C/C(=C\C=C\c2ccccc2)C(=O)/C(=C/C=C/c2ccccc2)C1,> 100,> 100,> 100,–,> 100,> 100,> 100,> 100,> 100,–,–,–
O=C1c2ccccc2C(=O)c2[nH]c(Cc3ccc(F)cc3)nc21,88.2,31.8,–,–,35.5,34.2,–,44.8,8.21,–,–,–
O=C1NCCS(=O)(=O)N2CCC[C@@H]12,> 100,–,> 100,> 100,–,> 100,> 100,> 100,> 100,–,–,–
C=C1C(=O)OC2CC3(C)OC3CC/C(C)=C/C(OC(C)=O)C12 (centres undefined),5.92,4.12,35.1,23.5,31.2,22.3,23,–,7.81,–,–,–
C/C=C(/C)C(=O)O[C@H]1[C@H](O)CC(c2ccc3c(c2O)C(O)=C2C(=O)C4(OC)C(O)=C(C(N)=O)C(=O)[C@H](CC(=O)c5ccccc5O)C4CC2[C@@]3(C)OC)O[C@@H]1C (some centres undefined),0.973,–,–,3.07,–,0.768,0.0292,–,3.85,–,–,–
CCCC(=O)[O-].N.N.N.N.N.[Co+3].[O-][Cl+3]([O-])([O-])[O-],> 100,–,> 100,–,–,–,–,–,> 100,> 100,> 100,> 100
COC(=O)C(NC(=O)c1ccccc1)C(c1ccc(Cl)cc1)P(=O)(OC)OC (centres undefined),> 100,> 100,> 100,–,> 100,> 100,–,–,> 100,–,–,–
O=C1CSc2cc([N+](=O)[O-])ccc2N1,> 100,> 100,> 100,> 100,> 100,> 100,> 100,> 100,> 100,–,–,–
COc1ccc(N2C(=O)C3c4[nH]c5ccccc5c4C4CCCCC4C3C2=O)cc1 (centres undefined),84.9,–,12.1,67.7,23.9,> 100,> 100,–,> 100,–,–,–
